From PubChem BioAssay AID248 (DTP/NCI, 2004)
Several values for one entry are separate records, joined by “and”; a condition that tells them apart may be missing. Equal entries are not always repeated. Inconclusive results and toxic doses are left out. Cut-off read from the data, not from the text of the source: active = T/C of 150% or more; inactive = T/C below 125%.

Tested on: L1210 leukemia ip in BDF1 mice, survival T/C
Assay: NCI In Vivo Anticancer Drug Screen. Data for tumor model L1210 Leukemia (intraperitoneal) in B6D2F1 (BDF1) mice
Conditions: endpoint: mean survival time, higher = longer survival
In short: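 Ratio derived from survival: compound-dosed mice over vehicle-dosed mice, all bearing a transplantable tumor.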

[1] = dose: 100.0 mg/kg/injection, schedule: Q04DX002 (ip), vehicle: Klucel (hydroxypropylcellulose) (HPC)
[2] = dose: 200.0 mg/kg/injection, schedule: Q04DX002 (ip), vehicle: Klucel (hydroxypropylcellulose) (HPC)
[3] = dose: 400.0 mg/kg/injection, schedule: Q04DX002 (ip), vehicle: Klucel (hydroxypropylcellulose) (HPC)
[4] = dose: 100.0 mg/kg/injection, schedule: Q04DX003 (ip), vehicle: saline
[5] = dose: 50.0 mg/kg/injection, schedule: Q01DX001 (ip), vehicle: carboxymethylcellulose (CMC)
[6] = dose: 100.0 mg/kg/injection, schedule: Q01DX001 (ip), vehicle: carboxymethylcellulose (CMC)
[7] = dose: 200.0 mg/kg/injection, schedule: Q01DX001 (ip), vehicle: carboxymethylcellulose (CMC)
[8] = dose: 100.0 mg/kg/injection, schedule: Q01DX001 (ip), vehicle: saline with Tween-80
[9] = dose: 200.0 mg/kg/injection, schedule: Q01DX001 (ip), vehicle: saline with Tween-80
[10] = dose: 400.0 mg/kg/injection, schedule: Q01DX001 (ip), vehicle: saline with Tween-80
[11] = dose: 100.0 mg/kg/injection, schedule: Q04DX003 (ip), vehicle: saline with Tween-80
[12] = dose: 200.0 mg/kg/injection, schedule: Q04DX003 (ip), vehicle: saline with Tween-80
[13] = dose: 100.0 mg/kg/injection, schedule: Q01DX009 (ip), vehicle: saline with Tween-80
[14] = dose: 200.0 mg/kg/injection, schedule: Q01DX009 (ip), vehicle: saline with Tween-80
[15] = dose: 400.0 mg/kg/injection, schedule: Q04DX003 (ip), vehicle: saline with Tween-80

Measured: T/C

Cc1ccc(C(=O)/C=C\c2ccc(Cl)c(Cl)c2)cc1
inactive: [1] 92 % of control | [2] 106 % of control | [3] 95 % of control

O=C1O/C(=C/c2ccccc2)C2CCCCC12 (stereo unspecified)
inactive: dose: 100.0 mg/kg/injection, schedule: Q01DX009 (ip), vehicle: saline 90 % of control | [4] 105 % of control | dose: 200.0 mg/kg/injection, schedule: Q01DX009 (ip), vehicle: saline 93 % of control | dose: 200.0 mg/kg/injection, schedule: Q04DX003 (ip), vehicle: saline 93 % of control | dose: 400.0 mg/kg/injection, schedule: Q01DX009 (ip), vehicle: saline 95 % of control | dose: 400.0 mg/kg/injection, schedule: Q04DX003 (ip), vehicle: saline 95 % of control

CC1(C)OC(CCl)C2OC(C)(C)OC(CCl)C2O1 (stereo unspecified)
inactive: dose: 100.0 mg/kg/injection, schedule: Q01DX001 (ip), vehicle: saline 93 % of control | dose: 200.0 mg/kg/injection, schedule: Q01DX001 (ip), vehicle: saline 88 % of control | dose: 400.0 mg/kg/injection, schedule: Q01DX001 (ip), vehicle: saline 104 % of control

Cc1cc(O)ccc1C1=NCC(C)(C)S1
inactive: dose: 100.0 mg/kg/injection, schedule: Q04DX002 (ip), vehicle: saline 93 % of control | dose: 200.0 mg/kg/injection, schedule: Q04DX002 (ip), vehicle: saline 100 % of control | dose: 400.0 mg/kg/injection, schedule: Q04DX002 (ip), vehicle: saline 103 % of control

Cc1cc(F)ccc1OCC(=O)Oc1ccc([N+](=O)[O-])cc1
inactive: [1] 108 % of control | [2] 101 % of control | [3] 111 % of control

Cc1cccc(C(=O)O)[n+]1[O-]
inactive: [5] 100 % of control | [6] 95 % of control | [7] 98 % of control | dose: 400.0 mg/kg/injection, schedule: Q01DX001 (ip), vehicle: carboxymethylcellulose (CMC) 100 % of control

CSc1ccc(NC(=O)Oc2ccccc2C(=O)OCc2ccccc2)cc1
inactive: dose: 100.0 mg/kg/injection, schedule: Q01DX009 (ip), vehicle: gum acacia 95 % of control | dose: 200.0 mg/kg/injection, schedule: Q01DX009 (ip), vehicle: gum acacia 100 % of control | dose: 400.0 mg/kg/injection, schedule: Q01DX009 (ip), vehicle: gum acacia 102 % of control

O=C1C=CC2C=CC1C(C(=O)O)C2C(=O)O (stereo unspecified) (tested in a mixture with another compound)
inactive: [8] 95 % of control | [9] 90 % of control | [10] 92 % of control

O=C(Nc1ccccc1)C(Cl)S(=O)(=O)O (stereo unspecified)
inactive: [8] 97 % of control | [9] 97 % of control

COc1cc([N+](=O)[O-])c2c(ccc[n+]2C)c1OC
inactive: [11] 98 % of control | [12] 89 % of control

CN(C)c1ccc(-c2nc3nc[nH]c(=O)c3[nH]2)cc1
inactive: dose: 5.0 mg/kg/injection, schedule: Q01DX001 (ip), vehicle: saline 100 % of control | dose: 10.0 mg/kg/injection, schedule: Q01DX001 (ip), vehicle: saline 96 % of control | dose: 20.0 mg/kg/injection, schedule: Q01DX001 (ip), vehicle: saline 96 % of control | dose: 40.0 mg/kg/injection, schedule: Q01DX001 (ip), vehicle: saline 96 % of control | dose: 80.0 mg/kg/injection, schedule: Q01DX001 (ip), vehicle: saline 96 % of control

COc1cccc(/C=N/Nc2nnc(N/N=C/c3cccc(OC)c3)c3ccccc23)c1
inactive: [5] 101 % of control | [6] 107 % of control | [7] 103 % of control

BrCC(Br)=C(Br)Br
inactive: dose: 6.0 mg/kg/injection, schedule: Q04DX003 (ip), vehicle: Klucel (hydroxypropylcellulose) (HPC) 105 % of control | dose: 12.0 mg/kg/injection, schedule: Q01DX001 (ip), vehicle: Klucel (hydroxypropylcellulose) (HPC) 88 % of control | dose: 12.0 mg/kg/injection, schedule: Q04DX003 (ip), vehicle: Klucel (hydroxypropylcellulose) (HPC) 91 % of control | dose: 25.0 mg/kg/injection, schedule: Q01DX001 (ip), vehicle: Klucel (hydroxypropylcellulose) (HPC) 97 % of control and 101 % of control | dose: 25.0 mg/kg/injection, schedule: Q04DX003 (ip), vehicle: Klucel (hydroxypropylcellulose) (HPC) 91 % of control | dose: 50.0 mg/kg/injection, schedule: Q01DX001 (ip), vehicle: Klucel (hydroxypropylcellulose) (HPC) 93 % of control and 90 % of control | dose: 100.0 mg/kg/injection, schedule: Q01DX001 (ip), vehicle: Klucel (hydroxypropylcellulose) (HPC) 97 % of control

CCOP(=S)(OCC)SC(C)c1ccccc1 (stereo unspecified)
inactive: dose: 50.0 mg/kg/injection, schedule: Q01DX009 (ip), vehicle: saline with Tween-80 95 % of control | [13] 91 % of control | [14] 100 % of control

CC(=O)OC/N=[N+](/C)[O-]
inactive: dose: 2.0 mg/kg/injection, schedule: Q01DX Z (ip), vehicle: saline 98 % of control | dose: 4.0 mg/kg/injection, schedule: Q01DX Z (ip), vehicle: saline 110 % of control | dose: 6.0 mg/kg/injection, schedule: Q01DX Z (ip), vehicle: saline 97 % of control | dose: 8.0 mg/kg/injection, schedule: Q01DX Z (ip), vehicle: saline 104 % of control | dose: 12.5 mg/kg/injection, schedule: Q01DX Z (ip), vehicle: saline 91 % of control

COc1cc(/C=N/N2C(=O)CSC2=S)ccc1OCc1ccccc1
inactive: [13] 89 % of control | [11] 93 % of control | [14] 91 % of control | [12] 93 % of control | [15] 86 % of control

Cc1c2cnccc2c(C)c2c1c1ccccc1n2CC1CO1 (stereo unspecified)
inactive: dose: 0.78 mg/kg/injection, schedule: Q01DX009 (ip), vehicle: Klucel (hydroxypropylcellulose) (HPC) 90 % of control | dose: 1.56 mg/kg/injection, schedule: Q01DX009 (ip), vehicle: Klucel (hydroxypropylcellulose) (HPC) 97 % of control | dose: 1.56 mg/kg/injection, schedule: Q01DX009 (ip), vehicle: saline with Tween-80 113 % of control | dose: 3.12 mg/kg/injection, schedule: Q01DX009 (ip), vehicle: Klucel (hydroxypropylcellulose) (HPC) 100 % of control | dose: 3.13 mg/kg/injection, schedule: Q01DX009 (ip), vehicle: saline with Tween-80 110 % of control | dose: 4.12 mg/kg/injection, schedule: Q01DX009 (ip), vehicle: Klucel (hydroxypropylcellulose) (HPC) 120 % of control | dose: 6.25 mg/kg/injection, schedule: Q01DX009 (ip), vehicle: Klucel (hydroxypropylcellulose) (HPC) 94 % of control and 122 % of control | dose: 6.25 mg/kg/injection, schedule: Q01DX009 (ip), vehicle: saline with Tween-80 113 % of control | dose: 6.25 mg/kg/injection, schedule: Q04DX003 (ip), vehicle: saline 110 % of control | dose: 12.5 mg/kg/injection, schedule: Q01DX009 (ip), vehicle: Klucel (hydroxypropylcellulose) (HPC) 113 % of control | dose: 12.5 mg/kg/injection, schedule: Q01DX009 (ip), vehicle: saline with Tween-80 120 % of control | dose: 25.0 mg/kg/injection, schedule: Q01DX009 (ip), vehicle: Klucel (hydroxypropylcellulose) (HPC) 119 % of control and 86 % of control | dose: 25.0 mg/kg/injection, schedule: Q04DX003 (ip), vehicle: saline 123 % of control | dose: 65.0 mg/kg/injection, schedule: Q04DX003 (ip), vehicle: saline 108 % of control and 117 % of control | [4] 104 % of control and 114 % of control | dose: 150.0 mg/kg/injection, schedule: Q04DX003 (ip), vehicle: saline 108 % of control

Cc1ccc([N+](=O)[O-])cc1NC(=O)N(C1CCCCC1)C1CCCCC1
inactive: dose: 100.0 mg/kg/injection, schedule: Q01DX009 (ip), vehicle: Klucel (hydroxypropylcellulose) (HPC) 95 % of control | dose: 200.0 mg/kg/injection, schedule: Q01DX009 (ip), vehicle: Klucel (hydroxypropylcellulose) (HPC) 97 % of control | dose: 400.0 mg/kg/injection, schedule: Q01DX009 (ip), vehicle: Klucel (hydroxypropylcellulose) (HPC) 97 % of control

CC(C)(C)c1cc(C(C)(C)C)c(O)c(C(C)(C)C)c1
inactive: [8] 91 % of control | [13] 92 % of control | [11] 98 % of control | [9] 95 % of control | [14] 96 % of control | [12] 98 % of control | [10] 87 % of control | dose: 400.0 mg/kg/injection, schedule: Q01DX009 (ip), vehicle: saline with Tween-80 93 % of control | [15] 93 % of control

CNC(Cc1ccc(OCc2ccccc2)cc1)C(=O)NC(CO)CC(C)C (stereo unspecified)
inactive: [11] 102 % of control | [12] 96 % of control | [15] 105 % of control
